Bridge positions count the residues as written; N and C are the ends. Ends that are not written are not given here.
How the values were obtained:
[1] = tested on: wild-type MDA-MB-231 cells; assay: Flow cytometry binding of FITC-conjugated phages; type: cell-based, human; details: phage displaying the peptide; compared to 04cys_EGFR and 30cys_EGFR phages
Source text: Phages expressing peptide sequences (01cys_EGFR, 04cys_EGFR, 06cys_EGFR, and 30cys_EGFR) and a wild-type M13 phage were conjugated to fluorescein isothiocyanate (FITC) in order to analyze their binding affinity to EGFR on MDA-MB-231 by flow cytometry. The “Pierce FITC Antibody Labeling Kit” (cat #53027—Thermo Fisher Scientific) was used for the conjugation following the manufacturer’s instructions.
(§1) We analyzed the binding of FITC-conjugated phages on MDA-MB231 cells by flow cytometry. A binding assay was also performed with FITC-conjugated peptides to human MDA-MB-231 and BT-549 cells, murine 4T1 cells, and additional EGFR-positive thyroid cancer cell lines K1 and Cal62. To increase the stringency conditions of in vitro binding, adherent cells were incubated with 10 μg/mL of 01cys_EGFR and 06_cys EGFR for 45 min in the dark at 37 °C instead of 4 °C of the standard protocol. Cells were recovered by a cell scraper, then twice washed with PBS and suspended in 300 μL of BD™ FACSFlow™ fluid. Data were acquired on the BD FACSCanto™ II and analyzed with FlowJo software (Becton Dickinson, San Jose, CA, USA).
The binding ability of phages 01cys_EGFR, 04cys_EGFR, 06cys_EGFR, and 30cys_EGFR to the MDA-MB-231 cells were analyzed by flow cytometry. To this end, the phages were conjugated with fluorescein isothiocyanate (FITC) and incubated with wild-type MDA-MB-231 or MDA-MB-231 EGFR- KO cells. […]

[2] = tested on: thyroid cancer cell lines (Cal62 and K1); assay: Flow cytometry binding of FITC-peptides to EGFR-positive thyroid cancer cells; type: cell-based, human; details: Cal62 and K1, especially K1; 10uM FITC-peptide, 45 min; compared with 06cys_EGFR
Procedure: as §1
In order to evaluate the binding efficacy of our peptides in other EGFR-overexpressing cancer cell types, we choose two different thyroid cancer cell lines (Cal62 and K1).
Figure S3. Pe p t i d e binding assay in EGFR-positive thyroid cancer cells using ﬂow cytometry. Flow cytometric analysis showing EGFR-overexpressing thyroid cancer cell lines K1 and Cal62 unstained or stained with 10uM of FITC- conjugate peptides (control, 01_cysEGFR and 06cys_EGFR) for 45 […]

[3] = tested on: MDA-MB-231 EGFR KO xenograft; assay: Confocal immunofluorescence of tumor xenograft tissue sections with FITC-peptides; design: species or system human; details: MDA-MB-231 EGFR KO xenograft sections, FITC-peptide 10 μg/mL, 45 min, 37 °C; confocal microscopy
Procedure: (§2) OCT-embedded MDA-MB-231 xenograft tissue samples derived from Balb/c nude mice were cut in 8–10 µm sections and mounted onto microscope slides for confocal microscopy analysis. Sections were fixed with 4% paraformaldehyde for 30 min at 4 °C, and then for 45 min, incubated at 4 °C with rabbit polyclonal anti-EGFR (1:100 dilution -Bethyl Laboratories, Inc., Montgomery, TX, USA) followed by Alexa Fluor 568-labeled anti-rabbit secondary antibody (1:500 dilution; Thermo Fisher Scientific). After washing, cells were incubated in the dark with FITC-conjugated peptides (Control, 01_cysEGFR, 06_cysEGFR) (10 μg/mL) for 45 min at 37 °C, anti-Wheat Germ Agglutinin (WGA) Alexa Fluor 647 conjugate (1:200 dilution; Thermo Fisher Scientific) for 45 min, and finally with DAPI at the dilution 1:500 for 10 min. Cells were prepared with mounting medium (ProLong antifade, Thermo Fisher Scientific) and visualized by confocal microscopy (LEICA TCS SP8).
EGFR was detected in the MDA-MB-231 xenograft tissue sections by an anti-EGFR antibody as a red fluorescence signal, while it was undetected in MDA-MB-231 EGFR KO (Figure 6).

BT549 cells = assay: Cell cycle analysis by propidium iodide flow cytometry; type: cell-based, human; details: 24 h; for mitogenic activity through the binding to the EGFR: 25 μM, BT549; for cells in G1 phase / cells in G2 phase / cells in S phase: free peptide 25 μM, after 18 h serum starvation, 0.2% FBS, PI staining, two experiments
Procedure: BT549 cells (200,000 cells/well) were seeded onto a 6-well plate in RPMI-1640 complete medium. After adhesion, cells were starved in serum-free RPMI-1640 for 18 h, and then the medium was changed to RPMI-1640 supplemented with 0.2% FBS in the presence or absence of control, 01cys_EGFR and 06_cys EGFR peptides (25 μM). After 24 h of peptide stimulation, cells were trypsinized, washed, and suspended in PBS. Cells were fixed with 1 mL of ice-cold 70% ethanol and incubated for 30 min at 4 °C. Fixed cells were washed three times and stained with 50 μg/mL of propidium iodide and 40 μg/mL of RNAse A. Cell cycle profile was acquired by FACS Canto II and analyzed by Flow Jo software 8.8.6 (Becton Dickinson).
Next, we tested whether the peptides 01cys_EGFR and 06cys_EGFR could affect the cell cycle through the binding to EGFR. To this end, BT549 cells were serum starved for 18h to induce synchronization and then treated with 01cys_EGFR, 06cys_EGFR, and the irrelevant control peptides (25 μM) or left untreated for 24 h. Proliferating cells were stained with propidium iodide to analyze cell cycle distribution by flow cytometry (Figure 7A). The cells treated with 01cys_EGFR, 06cys_EGFR, and control peptides were distributed ~26% in G1, ~64% in S, and ~10% in the G2 phase, which was a similar behavior to unstimulated cells (Figure 7B).
Figure 7 (A) The proportion of BT549 cells untreated or treated with 25 μM of control, 01cys_EGFR, and 06cys_EGFR peptides in G1, S, and G2 phases were determined by flow cytometry and quantified by Flow Jo software using Watson Pragmatic method. […] Data are collected from two different experiments and presented as means ± SD. Paired t-test indicates no statistical significance between peptide-stimulated and unstimulated cells.

[4] = tested on: MDA-MB-231 xenograft tissue; assay: Confocal immunofluorescence of tumor xenograft tissue sections with FITC-peptides; design: species or system human; details: MDA-MB-231 xenograft tissue sections, FITC-peptide 10 μg/mL, 45 min, 37 °C; confocal microscopy
Procedure: as §2
Then, we asked whether the 01_cysEGFR and 06_cysEGFR peptides could be used for in vivo analysis of tumor tissues expressing EGFR. To this end, we generated MDA-MB-231 tumor xenograft in mice and performed confocal microscopy analysis of tumor tissue sections upon immunofluorescence staining with FITC-peptides (green signal) or anti-EGFR (red signal) (Figure 6). […]

[5] = cited from earlier work
Source text: (§3) TNBC is the most aggressive form of breast cancer. There are different TNBC subtypes characterized by intratumor heterogeneity based on morphology, gene expression profile, and response to adjuvant chemotherapies. Unfortunately, TNBC is still lacking effective anticancer targets for clinical treatment. This justifies the urgency to explore new biomarkers and therapeutic strategies for improving the survival outcomes of TNBC patients. EGFR is a tyrosine kinase membrane receptor that contains in the extracellular region the docking site for the epidermal growth factor a ...

MDA-MB-468 cells = details: cited from earlier work
Source text: as §3

MDA-MB-231 cells = details: cited from earlier work
Source text: as §3

Sequence | binding of FITC-conjugated phage (percentage of fluorescence) [1] | efficacy of binding to thyroid cancer cells [2] | green fluorescence signal (FITC-peptide staining) [3] | mitogenic activity through the binding to the EGFR (BT549 cells) | cells in G1 phase (BT549 cells) | cells in G2 phase (BT549 cells) | cells in S phase (BT549 cells) | green fluorescence signal (FITC-peptide staining) [4] | serum stability [5] | uptake (MDA-MB-468 cells) | uptake (MDA-MB-231 cells)
CEKMVATHC (disulfide 1-9 (inferred)) [01cys_EGFR, Phage-display selected cyclic EGFR peptide ligand, one disulphide bond, amidated C-terminus] | higher efficiency | higher efficacy of binding | lack of fluorescence | lacked mitogenic activity | ~ 26% | ~ 10% | ~ 64% | stronger green fluorescence signal | – | – | –
CGGNGPGLC (disulfide 1-9 (inferred)) [irrelevant peptide, Irrelevant peptide synthesized as a negative control, reference compound] | – | – | – | – | ~ 26% | ~ 10% | ~ 64% | lack of green fluorescence signal | – | – | –
CPSDEHHTC (disulfide 1-9 (inferred)) [06cys_EGFR, Phage-display selected cyclic EGFR peptide ligand, one disulphide bond, amidated C-terminus] | higher efficiency | – | – | lacked mitogenic activity | ~ 26% | ~ 10% | ~ 64% | – | – | – | –
YHWYGYTPENVI [peptide 22] | – | – | – | – | – | – | – | – | low serum stability | highest uptake | highest uptake

Source: article PMC10093212, “Development of Cyclic Peptides Targeting the Epidermal Growth Factor Receptor in Mesenchymal Triple-Negative Breast Cancer Subtype” (Cells, 2023)
